Laboratory results published in patent publication US7589066B2, “Potent and specific immunoproteasome inhibitors” (The University of North Carolina at Chapel Hill, priority 2005, dated 2009).
Where two headings read alike, the source gives them in different places. Square brackets hold non-standard residues; d marks the D form. Peptide text beside a SMILES is read from it. * marks the point of attachment. hPhe = N[CH](CCc1ccccc1)C(=O)O; Cbz = O=C(OCc1ccccc1)*

Legend:
[1] = test system: HPAC human pancreatic adenocarcinoma cells; test: Proteasome inhibitor-induced apoptosis, ELISA of apoptotic nuclear DNA fragmentation; assay type: cell-based; settings: 5 nM, 18 hours
Experimental: (§1) Cultured NCI-H929 human myeloma cells, IM-9 human B-lymphoblasts, HPAC human pancreatic adenocarcinoma cells, and Hs 294T human melanoma cells were exposed to vehicle, 5 nM bortezomib (PS-341), or 50 μM Cbz-LnL-CHO for 18 hours. Apoptosis was evaluated using an enzyme-linked immunosorbent assay that detects apoptotic nuclear DNA fragmentation. Cell death is expressed as the fold-increase in apoptosis over the vehicle control, which was arbitrarily set at 1.0. Referring now to FIG. 2, the effect of PS-341 is shown in the open bar graphs, while Cbz-LnL-CHO (IPSI-001) is in the stippled bar graphs. The mean and standard error of the mean are shown for each condition from four independent experiments.

[2] = test system: Hs 294T human melanoma cells; test: as above; assay type: cell-based; settings: 5 nM, 18 hours
Experimental: as §1

[3] = test system: IM-9 human B-lymphoblasts; test: as above; assay type: cell-based; settings: 18 hours
Experimental: as §1

[4] = test system: NCI-H929 human myeloma cells; test: as above; assay type: cell-based; settings: 18 hours
Experimental: as §1

myeloma = settings: phase II study that led to FDA approval; cited from earlier work
[5] = molecular target: T1, proteasome from spleen tissue (LMP-2/7/10 isoform, immunoproteasome), chymotrypsin-like (ChT-L) activity (UniProt Q3T112); test: Inhibition of ChT-L activity of spleen proteasome (immunoproteasome); assay type: biochemical
T1 construct: Ki (μM) Spleen Proteasome, ChT-L component; other: substrate Cbz-GGF-pAB, Dixon plots, without preincubation; other: substrate Cbz-GGF-pAB
T1 sequence (Q3T112 1-276): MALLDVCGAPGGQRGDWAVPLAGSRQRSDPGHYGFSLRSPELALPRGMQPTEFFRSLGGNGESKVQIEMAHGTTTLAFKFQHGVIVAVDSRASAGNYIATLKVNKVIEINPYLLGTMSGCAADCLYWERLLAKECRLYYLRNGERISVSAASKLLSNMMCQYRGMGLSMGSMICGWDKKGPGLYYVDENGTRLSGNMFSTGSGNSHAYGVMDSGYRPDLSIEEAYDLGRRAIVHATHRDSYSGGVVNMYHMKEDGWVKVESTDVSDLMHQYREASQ
Description: (§2) To investigate the possibility that inhibitors specific for the immunoproteasome could be identified, the proteasome from pituitary tissue, representative of the X/Y/Z isoform (i.e., the constitutive proteasome), and the proteasome from spleen tissue, representative of the LMP-2/7/10 isoform (i.e., the immunoproteasome), were each purified to homogeneity. A panel of peptidyl-aldehyde substrate-related inhibitors were then screened for their ability to inhibit the chymotrypsin-like (ChT-L) and branched chain amino acid preferring (BrAAP) activities of these two proteasome preparations. […] The same was true for Cbz-FL-CHO, the peptide aldehyde version of bortezomib.
(§3) Dixon plots were used to obtain Ki values. Determinations were carried out at three substrate concentrations and at six different inhibitor concentrations without preincubation of the enzyme with inhibitors. Substrate concentrations were 0.1 to 0.4 mM for the BrAAP activity of the spleen, and 0.5 to 4.0 mM for the ChT-L activity, and 1.0 to 4.0 mM for all others. The substrate for the BrAAP activity was Cbz-GPALG-pAB, and Cbz-GGF-pAB for the ChT-L activity. Data are averages±standard error, with the number of determinations shown in parentheses.
as §3, with “for the […] activity of” for “for the BrAAP activity of”, “in parentheses. † indicates IC50 instead of Ki. NI indicates no inhibition in the tested range.” for “in parentheses.”
as §3, with “parentheses. † indicates IC50 instead of Ki. NI indicates no inhibition in the tested range.” for “parentheses.”

[6] = molecular target: T2, proteasome from pituitary tissue (X/Y/Z isoform, constitutive proteasome), chymotrypsin-like (ChT-L) activity (Bos taurus, UniProt Q32KL2); test: Inhibition of ChT-L activity of pituitary proteasome (constitutive proteasome); assay type: biochemical; settings: substrate Cbz-GGF-pAB; for IC50: read-out: IC50 instead of Ki (†), Pituitary Proteasome, ChT-L component; for Ki: Dixon plots, without preincubation, read-out: Ki (μM) Pituitary Proteasome, ChT-L component
T2 construct: the proteasome from pituitary tissue, representative of the X/Y/Z isoform; from tissue; host or cells: pituitary
Description: To investigate the possibility that inhibitors specific for the immunoproteasome could be identified, the proteasome from pituitary tissue, representative of the X/Y/Z isoform (i.e., the constitutive proteasome), and the proteasome from spleen tissue, representative of the LMP-2/7/10 isoform (i.e., the immunoproteasome), were each purified to homogeneity. A panel of peptidyl-aldehyde substrate-related inhibitors were then screened for their ability to inhibit the chymotrypsin-like (ChT-L) and branched chain amino acid preferring (BrAAP) activities of these two proteasome preparations.
as §3, with “Dixon plots were used to obtain Ki values.” left out
as §3, with “[…] Determinations were” for “Dixon plots were used to obtain Ki values. Determinations were”, “for the […] activity of” for “for the BrAAP activity of”, “in parentheses. † indicates IC50 instead of Ki. NI indicates no inhibition in the tested range.” for “in parentheses.”
as §3, with “Dixon plots were used to obtain Ki values.” left out, “parentheses. † indicates IC50 instead of Ki. NI indicates no inhibition in the tested range.” for “parentheses.”

[7] = test system: proteasome from spleen tissue (LMP-2/7/10 isoform, immunoproteasome), chymotrypsin-like (ChT-L) activity; test: Inhibition of ChT-L activity of spleen proteasome (immunoproteasome); assay type: biochemical; settings: spleen versus pituitary proteasome, in vitro
Description: as §2, §3
as §3, with “for the […] activity of” for “for the BrAAP activity of”, “in parentheses. † indicates IC50 instead of Ki. NI indicates no inhibition in the tested range.” for “in parentheses.”
as §3, with “parentheses. † indicates IC50 instead of Ki. NI indicates no inhibition in the tested range.” for “parentheses.”

[8] = test system: proteasome from spleen tissue (LMP-2/7/10 isoform, immunoproteasome), branched chain amino acid preferring (BrAAP) activity; test: Inhibition of BrAAP activity of spleen proteasome (immunoproteasome); assay type: biochemical; settings: spleen versus pituitary proteasome, in vitro
Description: as §2, §3
Dixon plots were used to obtain Ki values. […]

[9] = substrate Cbz-GGF-pAB, Dixon plots, without preincubation; read-out: Ki (μM) Spleen Proteasome, ChT-L component
[10] = read-out: Ki (μM) Spleen Proteasome, ChT-L component; substrate Cbz-GGF-pAB, Dixon plots, without preincubation

Ki [5, 9] [µM]	Compound	IC50 [6] [µM]	Ki [6] [µM]	also measured
–	CC(C)C[C@H](NC(=O)[C@H](Cc1ccccc1)NC(=O)c1cnccn1)B(O)O [Bortezomib, reference compound]	–	–	induction of apoptosis (fold-increase over the vehicle control) [1]: induces apoptosis roughly equally in all of the cell lines tested; induction of apoptosis (fold-increase over the vehicle control) [2]: induces apoptosis roughly equally in all of the cell lines tested; induction of apoptosis (fold-increase over the vehicle control) ([3]; IM-9, 5 nM): induces apoptosis roughly equally in all of the cell lines tested; induction of apoptosis (fold-increase over the vehicle control) ([4]; NCI-H929, 5 nM): induces apoptosis roughly equally in all of the cell lines tested; patients with myeloma with partial responses or better (myeloma): 28%
–	CC(NC(=O)OCc1ccccc1)C(=O)NC(C=O)Cc1ccccc1 (stereo not drawn) [Cbz-AF-CHO, N-carbobenzyloxy-alanyl-phenylalanylal]	380	–	IC50 ([5]; substrate Cbz-GGF-pAB; read-out: IC50 instead of Ki (†), Spleen Proteasome, ChT-L component): 24 µM
4 ± 0.27	O=CC(Cc1ccccc1)NC(=O)C(Cc1ccccc1)NC(=O)OCc1ccccc1 (stereo not drawn) [Cbz-FF-CHO, N-carbobenzyloxy-phenylalanyl-phenylalanylal] (Cbz-Phe-Phe-aldehyde; configuration not given here)	–	56 ± 4.4	–
2.1 ± 0.29	CC(C)CC(C=O)NC(=O)C(Cc1ccccc1)NC(=O)OCc1ccccc1 (stereo not drawn) [Cbz-FL-CHO, reference compound] (Cbz-Phe-Leu-aldehyde; configuration not given here)	–	5.55 ± 0.47	–
–	O=CC(Cc1ccccc1)NC(=O)C(Cc1ccccc1)NC(=O)CNC(=O)OCc1ccccc1 (stereo not drawn) [Cbz-GFF-CHO, N-carbobenzyloxy-glycyl-phenylalanyl-phenylalanylal] (Cbz-Gly-Phe-Phe-aldehyde; configuration not given here)	2.7	–	IC50 ([5]; read-out: IC50 instead of Ki (†), Spleen Proteasome, ChT-L component; substrate Cbz-GGF-pAB): 1.03 µM
–	CC(NC(=O)C1CCCN1C(=O)CNC(=O)OCc1ccccc1)C(=O)NC(C=O)Cc1ccccc1 (stereo not drawn) [Cbz-GPAF-CHO, N-carbobenzyloxy-glycyl-prolyl-alanyl-phenylalanylal] (Cbz-GPAF-aldehyde; configuration not given here)	–	460 ± 66	Ki [5, 10]: 8.4 ± 0.52 µM
–	O=CC(Cc1ccccc1)NC(=O)C(Cc1ccccc1)NC(=O)C1CCCN1C(=O)CNC(=O)OCc1ccccc1 (stereo not drawn) [Cbz-GPFF-CHO, N-carbobenzyloxy-glycyl-prolyl-phenylalanyl-phenylalanylal] (Cbz-GPFF-aldehyde; configuration not given here)	–	58 ± 1.8	Ki [5, 10]: 5.6 ± 1.1 µM
1.45 ± 1.05	CC(C)CC(C=O)NC(=O)C(C)NC(=O)C(CC(C)C)NC(=O)OCc1ccccc1 (stereo not drawn) [Cbz-LAL-CHO, reference compound] (Cbz-Leu-Ala-Leu-aldehyde; configuration not given here)	–	0.82 ± 0.15	–
5.6 ± 0.2	CC(C)CC(NC(=O)OCc1ccccc1)C(=O)NC(C=O)Cc1ccccc1 (stereo not drawn) [Cbz-LF-CHO, N-carbobenzyloxy-leucyl-phenylalanylal] (Cbz-Leu-Phe-aldehyde; configuration not given here)	154	–	–
–	CC(C)CC(NC(=O)OCc1ccccc1)C(=O)NC(CC(C)C)C(=O)NC(C=O)Cc1ccccc1 (stereo not drawn) [Cbz-LLF-CHO, N-carbobenzyloxy-leucyl-leucyl-phenylalanylal] (Cbz-Leu-Leu-Phe-aldehyde; configuration not given here)	–	1.6 ± 0.5	Ki [5, 10]: 5.97 ± 1.4 µM
5.1 ± 0.9	CC(C)C[C@@H](C=O)NC(=O)[C@H](CC(C)C)NC(=O)[C@H](CC(C)C)NC(=O)OCc1ccccc1 [Cbz-LLL-CHO, reference compound] (Cbz-Leu-Leu-Leu-aldehyde)	–	6.9 ± 0.84	–
2.74 ± 0.33	O=CC(Cc1ccccc1)NC(=O)C(CCc1ccccc1)NC(=O)OCc1ccccc1 (stereo not drawn) [Cbz-hFF-CHO, N-carbobenzyloxy-homophenylalanyl-phenylalanylal] (Cbz-[hPhe]-Phe-aldehyde; configuration not given here)	40	–	–

Compound	Ki [5, 9] [µM]	IC50 [6] [µM]	Ki [6] [µM]	also measured
CCCCC(C=O)NC(=O)C(CC(C)C)NC(=O)OCc1ccccc1 (stereo not drawn) [Cbz-LnL-CHO, N-carbobenzyloxy-leucyl-norleucinal]	1.03 ± 0.17	–	105 ± 1.3	preference for the LMP-containing ChT-L proteasome activity [7]: greater than 100 fold; preference for the LMP-containing BrAAP proteasome activity [8]: greater than 160 fold; induction of apoptosis (fold-increase over the vehicle control) ([3]; IM-9, 50 μM): induces significant apoptosis; induction of apoptosis (fold-increase over the vehicle control) ([4]; NCI-H929, 50 μM): induces significant apoptosis
